The results in this text go back to PubChem BioAssay (NCI).

Test systems include A549 NSCLC; HCC-2998 colon; SW-620 colon; HL-60(TB) leukemia; U251 CNS; UO-31 renal; ACHN renal; HCT-15 colon; 786-0 renal; OVCAR-3 ovarian.
Experiment in all cases: NCI anticancer screen, dose series, 48 h

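Growth conditions: 96-well plates. Treatment: test compound, 48 hours, 5 concentrations. Analysis: linear interpolation between bracketing concentrations; unreached endpoints set to highest concentration. At the GI50, growth is halved. TGI is the concentration that stops growth completely.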

For `O=C1c2ccccc2C(=O)C1C(c1ccc([N+](=O)[O-])cc1)C1C(=O)c2ccccc2C1=O`, the TGI in the test on A549 NSCLC was greater than 100 µM; in the test on HCC-2998 colon, greater than 100 µM; in the test with SW-620 colon, 32.3 µM; in the test with HL-60(TB) leukemia, greater than 100 µM; with U251 CNS, greater than 100 µM; with UO-31 renal it was greater than 100 µM. Moreover, the TGI in the test on ACHN renal was greater than 100 µM; in the test with HCT-15 colon, greater than 100 µM; in the test on 786-0 renal, greater than 100 µM; in the test with OVCAR-3 ovarian, 34.1 µM.

As for `COc1ccc(/C=C2\CCCC3=C2NC(C)=NC3c2ccc(OC)c(OC)c2)cc1OC` (stereo not given), the GI50 in the test with A549 NSCLC is 53.7 µM; with HCC-2998 colon it was greater than 100 µM; with SW-620 colon, 7.69 µM; with HL-60(TB) leukemia, 5.84 µM; in the test with U251 CNS it was 23.4 µM; in the test on UO-31 renal, 31.1 µM. Besides, the GI50 in the test with ACHN renal is 6.74 µM; with HCT-15 colon, 3.52 µM; in the test with 786-0 renal it was 33.7 µM; in the test on OVCAR-3 ovarian, 5.47 µM. In addition, the TGI with A549 NSCLC, in the test on HCC-2998 colon, in the test on SW-620 colon, in the test on HL-60(TB) leukemia, in the test with U251 CNS and in the test with UO-31 renal was greater than 100 µM each time. The TGI in the test with ACHN renal, in the test with HCT-15 colon, in the test on 786-0 renal and in the test on OVCAR-3 ovarian was greater than 100 µM throughout.

Turning to `CCO[C@@H]1C2C=CC(C2)[C@H]1[N+](=O)[O-]` (stereo not given in full), the TGI in the test with A549 NSCLC, with HCC-2998 colon, in the test on SW-620 colon, in the test with HL-60(TB) leukemia, with U251 CNS and with UO-31 renal was greater than 100 µM throughout. The TGI in the test on ACHN renal, in the test with HCT-15 colon, with 786-0 renal and in the test on OVCAR-3 ovarian was greater than 100 µM each time.

For `CC[CH2][Pb]([CH2]CC)([CH2]CC)[NH]S(=O)(=O)c1ccc(C)cc1`, the GI50 was 0.0868 µM with A549 NSCLC; 0.0727 µM with HCC-2998 colon; 0.0364 µM in the test with SW-620 colon; 0.0643 µM in the test with HL-60(TB) leukemia; 0.089 µM with U251 CNS; 0.143 µM in the test on UO-31 renal. Besides, the GI50 in the test with ACHN renal is 0.0668 µM; in the test with HCT-15 colon it was 0.125 µM; in the test with 786-0 renal it was 0.0574 µM; in the test on OVCAR-3 ovarian, 0.024 µM. Besides, the TGI with A549 NSCLC was 0.678 µM; in the test on HCC-2998 colon, 0.2 µM; in the test with SW-620 colon, 0.345 µM; in the test on HL-60(TB) leukemia it was 0.272 µM; in the test on U251 CNS it was 0.292 µM; with UO-31 renal, 0.274 µM. The TGI amounted to 0.2 µM in the test with ACHN renal, 0.312 µM in the test with HCT-15 colon, 0.134 µM with 786-0 renal and 0.0625 µM in the test with OVCAR-3 ovarian.

Consider `COc1cc(/C=C(/c2ccccc2)[N+](=O)[O-])c(OC)c2c1OCO2`, for which the GI50 is 2.1 µM in the test on A549 NSCLC; 1.97 µM in the test on HCC-2998 colon; 1.52 µM in the test on SW-620 colon; 1.79 µM in the test on HL-60(TB) leukemia; 1.52 µM with U251 CNS; 1.28 µM with UO-31 renal. Moreover, the GI50 is 1.71 µM in the test with ACHN renal, 0.389 µM in the test on HCT-15 colon, 1.62 µM in the test on 786-0 renal and 1.32 µM with OVCAR-3 ovarian. The TGI in the test with A549 NSCLC is 5.03 µM; in the test with HCC-2998 colon, 3.44 µM; in the test on SW-620 colon it was 3.56 µM; in the test with HL-60(TB) leukemia, 5.64 µM; in the test on U251 CNS it was 3.05 µM; in the test with UO-31 renal, 2.54 µM. The TGI in the test with ACHN renal was found to be 3.08 µM; in the test on HCT-15 colon it was 1.6 µM; in the test on 786-0 renal it was 3.05 µM; with OVCAR-3 ovarian it was 2.63 µM.

As for `O=C(Cc1ccccc1)N/N=C(\C1=Nc2ccc([N+](=O)[O-])cc2NC1O)C(O)c1ccc([N+](=O)[O-])cc1` (stereo not given), the TGI in the test on A549 NSCLC, in the test on HCC-2998 colon, in the test on SW-620 colon, with HL-60(TB) leukemia, with U251 CNS and in the test with UO-31 renal was greater than 100 µM throughout. Also, the TGI in the test with ACHN renal, in the test with HCT-15 colon, in the test with 786-0 renal and in the test with OVCAR-3 ovarian was greater than 100 µM in each case.

Turning to `CCCCC[C@H]1C/C=C2/C(=O)C(Cl)=C[C@@H]2C/C=C\CCCC(=O)O[C@@H](CCCCC)C/C=C2/C(=O)C(Cl)=C[C@@H]2C/C=C\CCCC(=O)O1`, the GI50 in the test on A549 NSCLC is 0.426 µM; in the test on HCC-2998 colon, 0.349 µM; in the test with SW-620 colon it was 0.512 µM; with HL-60(TB) leukemia, 0.429 µM; in the test on U251 CNS, 0.291 µM; with UO-31 renal, 0.269 µM. The GI50 in the test on ACHN renal is 0.623 µM; in the test with HCT-15 colon it was 0.49 µM; in the test with 786-0 renal it was 0.28 µM; in the test on OVCAR-3 ovarian it was 0.268 µM. Besides, the TGI in the test on A549 NSCLC turned out to be 1.15 µM; in the test on HCC-2998 colon it was 0.651 µM; in the test with SW-620 colon, 1.77 µM; with HL-60(TB) leukemia it was 1.27 µM; in the test on U251 CNS, 0.652 µM; with UO-31 renal, 0.508 µM. For the same molecule, the TGI turned out to be 2.15 µM in the test with ACHN renal, 1.85 µM in the test on HCT-15 colon, 0.622 µM in the test with 786-0 renal and 0.555 µM with OVCAR-3 ovarian.

`CCSc1nc(COC(=O)NC)c(COC(=O)NC)n1C`: the TGI in the test on A549 NSCLC, in the test on HCC-2998 colon, in the test with SW-620 colon, in the test with HL-60(TB) leukemia, in the test with U251 CNS and with UO-31 renal was greater than 100 µM throughout. For the same molecule, the TGI in the test on ACHN renal was 35.5 µM; with HCT-15 colon it was greater than 100 µM; in the test on 786-0 renal it was greater than 100 µM; in the test with OVCAR-3 ovarian, greater than 100 µM.

Consider `COc1ccc2c(C(=O)O)cc3cc(OC)c(OC)cc3c2c1`, for which the TGI in the test with A549 NSCLC, with HCC-2998 colon, with SW-620 colon, with HL-60(TB) leukemia, in the test on U251 CNS and in the test with UO-31 renal was greater than 100 µM throughout. Moreover, the TGI with ACHN renal, with HCT-15 colon, with 786-0 renal and in the test with OVCAR-3 ovarian was greater than 100 µM each time.

Consider `O=C1CC2C(=O)N(Cc3ccccc3)C1C(S(=O)(=O)c1ccccc1)C2S(=O)(=O)c1ccccc1` (stereo not given), for which the TGI in the test with A549 NSCLC came out at 33.2 µM; in the test on HCC-2998 colon it was 20.7 µM; in the test with SW-620 colon it was 1.69 µM; in the test on HL-60(TB) leukemia, 3.51 µM; in the test with U251 CNS, 8.61 µM; in the test on UO-31 renal, 22.6 µM. Besides, the TGI with ACHN renal was 3.24 µM; with HCT-15 colon it was 2.91 µM; with 786-0 renal, 9.68 µM; in the test on OVCAR-3 ovarian it was 3.65 µM.

As for `CCOC(=O)N1C2C=C(C)C(C3C(C)C(=O)N31)N(C(=O)c1ccccc1)O2` (stereo not given), the TGI in the test on A549 NSCLC, in the test on HCC-2998 colon, with SW-620 colon, in the test on HL-60(TB) leukemia, in the test on U251 CNS and in the test with UO-31 renal was greater than 100 µM in each case. Further, the TGI with ACHN renal, with HCT-15 colon, in the test on 786-0 renal and in the test on OVCAR-3 ovarian was greater than 100 µM in each case.

On to `Fc1ccc(Nc2nc(NCCNc3ccnc4cc(Cl)ccc34)nc(N3CCOCC3)n2)cc1`, for which the GI50 in the test on A549 NSCLC was 10.5 µM; with HCC-2998 colon, 2 µM; with SW-620 colon it was 4.21 µM; with HL-60(TB) leukemia it was 1.8 µM; in the test on U251 CNS, 4.72 µM; in the test with UO-31 renal, 3.52 µM. In addition, the GI50 in the test with ACHN renal is 7.06 µM; with HCT-15 colon, 2.46 µM; with 786-0 renal it was 3.35 µM; with OVCAR-3 ovarian it was 11.9 µM. The TGI worked out at 25.1 µM with A549 NSCLC; 3.95 µM in the test on HCC-2998 colon; 16.4 µM with SW-620 colon; 4.89 µM in the test with HL-60(TB) leukemia; 17.5 µM with U251 CNS; 16.5 µM in the test with UO-31 renal. For the same molecule, the TGI in the test on ACHN renal was determined as 20.2 µM; in the test with HCT-15 colon it was 6.56 µM; with 786-0 renal, 15.3 µM; in the test on OVCAR-3 ovarian it was 24.5 µM.

Take `COC(=O)[C@]1(C)CCC[C@@]2(C)C1CCC1=C[C@@]3(C(C)C)CC[C@]12OO3` (stereo not given in full): the TGI with A549 NSCLC is greater than 100 µM; in the test on HCC-2998 colon it was greater than 100 µM; with SW-620 colon, greater than 100 µM; in the test with HL-60(TB) leukemia it was 42 µM; in the test with U251 CNS it was greater than 100 µM; in the test with UO-31 renal, 40.2 µM. For the same molecule, the TGI was greater than 100 µM with ACHN renal, greater than 100 µM in the test on HCT-15 colon, 40.9 µM in the test with 786-0 renal and greater than 100 µM in the test with OVCAR-3 ovarian.

In the case of `Clc1ccc(CN2COc3c(cc(Cl)c4cccnc34)C2)cc1`, the TGI with A549 NSCLC came out at 6.12 µM; in the test on HCC-2998 colon it was 12 µM; in the test on SW-620 colon, 11 µM; in the test with HL-60(TB) leukemia, 2.11 µM; in the test on U251 CNS it was 6.45 µM; with UO-31 renal it was 5.51 µM. The TGI stood at 8.74 µM in the test with ACHN renal, 13.5 µM in the test with HCT-15 colon, 9.41 µM with 786-0 renal and 6.84 µM with OVCAR-3 ovarian.

Regarding `Cc1cccc(C)c1NC(=O)CCCC(=O)C1CCC/C1=N\NC(=O)C(=O)NN` (stereo not given), the TGI with A549 NSCLC, with HCC-2998 colon, with SW-620 colon, with HL-60(TB) leukemia, in the test on U251 CNS and in the test with UO-31 renal was greater than 100 µM each time. Besides, the TGI in the test with ACHN renal, with HCT-15 colon, in the test on 786-0 renal and with OVCAR-3 ovarian was greater than 100 µM in each case.
